Data on two compounds can be found in US10604555B2, “GIP derivatives and uses thereof” (priority 2018, dated 2020).

*1 amine or outer side, *2 acyl side, *3 side chain or, on linkers, in order; H or OH if unused. Where a SMILES comes first, the peptide text is derived from it. Side-chain parts run from the residue outwards. [ ]: non-standard residue; d: D form. The star is where a group is joined. X1 = O=C(O)CCCCCCCCCCCCCCCCCCC(=O)NCC1CCC(C(=O)*)CC1; γGlu = O=C(O)[C@H](CCC(=O)[*:2])N[*:1]; Nle = CCCC[C@H](N)C(=O)O; Aib = CC(C)(N)C(=O)O

Assay type in all cases: physicochemical
A short description of series [1]: ThT fibrillation assay (physical stability). As to conditions: 250 μM, pH 7.4, 37° C., 45 hours of incubation. As for the experimental part: The Thioflavin T assay was performed as outlined in Schlein (2017), AAPS J, 19(2), 397-408.
This has traditionally been measured by visual inspection of the sample. However, that kind of measurement is very cumbersome and depending on the observer. Therefore, the application of a small molecule indicator probe is much more advantageous. Thioflavin T (ThT) is such a probe and has a distinct fluorescence signature when binding to fibrils [Naiki et al. (1989) Anal. Biochem. 177, 244-249; LeVine (1999) Methods. Enzymol. 309, 274-284].
The time course for fibril formation can be described by a sigmoidal curve with the following expression [Nielsen et al. (2001) Biochemistry 40, 6036-6046]:
Here, F is the ThT fluorescence at the time t. The constant t0 is the time needed to reach 50% of maximum fluorescence. The two important parameters describing fibril formation are the lag-time calculated by t0−2τ and the apparent rate constant kapp 1/τ.
Few of those intermediates nucleate to form a template onto which further intermediates may assembly and the fibrillation proceeds. The lag-time corresponds to the interval in which the critical mass of nucleus is built up and the apparent rate constant is the rate with which the fibril itself is formed.
Samples are prepared freshly before each assay. The drug substance was solved with 250 μM of the GIP derivative in 8 mM phosphate, 14 mg/mL propylene glycol, 58 mM phenol, pH 7.4. The pH of the sample was adjusted to the desired value using appropriate amounts of concentrated NaOH and HCl. Thioflavin T was added to the samples from a stock solution in H2O to a final concentration of 1 μM.
Sample aliquots of 200 μl were placed in each well of a 96 well microtiter plate (Packard OptiPlate™-96, white polystyrene). Four replica of each sample (corresponding to one test condition) was placed in one column of wells. The plate was sealed with Scotch Pad (Qiagen).
Incubation, shaking and measurement of the ThT fluorescence emission were done in a Fluoroskan Ascent FL fluorescence platereader (Thermo Labsystems). […] Fluorescence measurement was done using excitation through a 444 nm filter and measurement of emission through a 485 nm filter.
Each run was initiated by incubating the plate at the assay temperature for 10 min. The plate was measured every 20 minutes for a desired period of time. Between each measurement, the plate was shaken and heated as described.
After completion of the ThT assay the replica of each sample was pooled and centrifuged at 20000 rpm for 30 minutes at 18° C. The supernatant was filtered through a 0.22 μm filter and an aliquot was transferred to a HPLC vial. The concentration of the filtered sample relative to the initial sample (in percentage) was reported as the recovery.
The measurement points were saved in Microsoft Excel format for further processing and curve drawing and fitting was performed using GraphPad Prism. […] The data points were a mean of the four replica and shown with standard deviation error bars. Only data obtained in the same experiment (i.e. samples on the same plate) were presented in the same graph ensuring a relative measure of fibrillation between experiments.
The data set may be fitted to Eq. (1).

A short description of series [2]: Chemical stability: HMWP formation by SEC-MS. As to conditions: 37° C., 4 weeks, 250 μM, pH 7.4. As for the experimental part: The aim of this study is to determine the chemical stability of GIP derivative compositions. As a measure of stability of the GIP derivative composition, the formation of high molecular weight peptide formation (% HMWP) as a function of time was analysed by size-exclusion chromatography (SEC-MS). Further, the purity loss of the GIP derivative compositions was measured by LCMS. Samples for chemical stability assays were freshly prepared before each assay. […] The pH of the sample was adjusted to the desired value using appropriate amounts of concentrated NaOH and HCl. […] Formation of covalent oligomers (HMWPs) was analysed and identified by a SEC-MS method. […] The LC system was coupled to both a TUV detector operated at 215 nm, 10 Hz and a high resolution QToF mass spectrometer from Waters (Synapt G2S) operated in positive ion mode and m/z range of 100 to 4000 with normal resolution setting. Lock mass correction against Leu-Enkephalin was done every 31 sec. Spectra were processed in MassLynx version 4.1 and MaxEnt deconvoluted.

Series [3] is described as follows: Chemical stability: purity loss by LCMS. As to conditions: 37° C., 4 weeks, 250 μM, pH 7.4. How it is done: The aim of this study is to determine the chemical stability of GIP derivative compositions. As a measure of stability of the GIP derivative composition, the formation of high molecular weight peptide formation (% HMWP) as a function of time was analysed by size-exclusion chromatography (SEC-MS). Further, the purity loss of the GIP derivative compositions was measured by LCMS. Samples for chemical stability assays were freshly prepared before each assay. […] The pH of the sample was adjusted to the desired value using appropriate amounts of concentrated NaOH and HCl. […] The column oven was kept at 55° C. […] The solvents were pumped from a binary solvent manager system and mixed on the high pressure side in a mixer with a volume of 50 μl. The gradient and flow can be seen in table 4: [table] A Flow-through-needle auto sampler at 8° C. was used to inject 1 μl of each sample. The effluent passed through a tunable UV detector (TUV) tuned to 215 nm. The outlet from the UV detector passed to the electrospray source of the mass spectrometer. The capillary was held at 3 kV and dry nitrogen gas was purged at a flow of 750 I/h and a temperature of 250° C. The source block was kept at 120° C. and the large bore cone was flushed with nitrogen at 50 I/h with standard electrode potentials on the rest of the instrument. The MS was operated in high resolution mode with a nominal resolution of 35000. The ToF analyser was operated in ADC mode with an m/z window from 100-2000.

The nature of series [4]: Dynamic Light Scattering Stability Index (DLS-SI). As to conditions: 250 μM, pH 7.4, 4 weeks at 25° C.

`CCCC[C@H](NC(=O)[C@H](C)NC(=O)[C@@H](NC(=O)[C@H](CO)NC(=O)[C@H](Cc1ccc(O)cc1)NC(=O)[C@H](CC(=O)O)NC(=O)[C@H](CO)NC(=O)[C@@H](NC(=O)[C@H](Cc1ccccc1)NC(=O)[C@@H](NC(=O)CNC(=O)[C@H](CCC(=O)O)NC(=O)C(C)(C)NC(=O)[C@@H](Cc1ccc(O)cc1)NC(C)=O)[C@@H](C)O)[C@@H](C)CC)[C@@H](C)CC)C(=O)N[C@@H](CC(=O)O)C(=O)N[C@@H](CCCCN)C(=O)N[C@H](C(=O)N[C@@H](Cc1c[nH]cn1)C(=O)N[C@@H](CCC(N)=O)C(=O)N[C@@H](CCC(N)=O)C(=O)N[C@@H](CC(=O)O)C(=O)N[C@@H](Cc1ccccc1)C(=O)N[C@H](C(=O)N[C@@H](CCCCNC(=O)CC[C@H](NC(=O)CC[C@H](NC(=O)CC[C@H](NC(=O)C1CCC(CNC(=O)CCCCCCCCCCCCCCCCCCC(=O)O)CC1)C(=O)O)C(=O)O)C(=O)O)C(=O)N[C@@H](Cc1c[nH]c2ccccc12)C(=O)N[C@@H](CC(C)C)C(=O)N[C@@H](CC(C)C)C(=O)N[C@@H](C)C(=O)N[C@@H](CCC(N)=O)C(=O)N[C@@H](CCCCN)C(=O)N1CCC[C@H]1C(N)=O)C(C)C)[C@@H](C)CC` (stereo partly drawn) [Compound 32, N{1}-acetyl,N{Epsilon-24}-[(4S)-4-carboxy-4-[[(4S)-4-carboxy-4-[[(4S)-4-carboxy-4-[[4-[(19-carboxynonadecanoylamino)methyl]cyclohexanecarbonyl]amino]butanoyl]-amino]butanoyl]amino]butanoyl]-[D-Tyr1,Aib2,Nle14,Lys24,Pro31]-hGIP(1-31) amide] (Ac-[dY][Aib]EGTFISDYSIA[Nle]DKIHQQDFVK([γGlu-γGlu-γGlu-X1])WLLAQKP-NH2): the “ThT Assay Lag time” value in series [1] is recorded as more than 45 h. The “HMWP formation (%/month)” value in series [2] amounted to 0.66 %/month. Further, in series [3], the “Purity loss (%/month)” value came out at 2.80 %/month. In series [4], the “DLS-SI Dimensionless” value was 1.7 and the DLS-SI precipitates result is reported as “No”.

Regarding `CCCC[C@H](NC(=O)[C@H](C)NC(=O)[C@@H](NC(=O)[C@H](CO)NC(=O)[C@H](Cc1ccc(O)cc1)NC(=O)[C@H](CC(=O)O)NC(=O)[C@H](CO)NC(=O)[C@@H](NC(=O)[C@H](Cc1ccccc1)NC(=O)[C@@H](NC(=O)CNC(=O)[C@H](CCC(=O)O)NC(=O)C(C)(C)NC(=O)[C@@H](N)Cc1ccc(O)cc1)[C@@H](C)O)[C@@H](C)CC)[C@@H](C)CC)C(=O)N[C@@H](CC(=O)O)C(=O)N[C@@H](CCCCN)C(=O)N[C@H](C(=O)N[C@@H](CCCNC(=N)N)C(=O)N[C@@H](CCC(N)=O)C(=O)N[C@@H](CCC(=O)O)C(=O)N[C@@H](CC(=O)O)C(=O)N[C@@H](Cc1ccccc1)C(=O)N[C@H](C(=O)N[C@@H](CCCCNC(=O)CC[C@H](NC(=O)CC[C@H](NC(=O)CC[C@H](NC(=O)C1CCC(CNC(=O)CCCCCCCCCCCCCCCCCCC(=O)O)CC1)C(=O)O)C(=O)O)C(=O)O)C(=O)N[C@@H](Cc1c[nH]c2ccccc12)C(=O)N[C@@H](CC(C)C)C(=O)N[C@@H](CC(C)C)C(=O)N[C@@H](C)C(=O)N[C@@H](CCC(N)=O)C(=O)N[C@@H](CCCCN)C(=O)NCC(=O)O)C(C)C)[C@@H](C)CC` (stereo partly drawn) [Compound 10, N{Epsilon-24}-[(4S)-4-carboxy-4-[[(4S)-4-carboxy-4-[[(4S)-4-carboxy-4-[[4-[(19-carboxynonadecanoylamino)methyl]cyclohexanecarbonyl]amino]butanoyl]amino]-butanoyl]amino]butanoyl]-[Aib2,Nle14,Arg18,Glu20,Lys24]-hGIP(1-31)] (H-Y[Aib]EGTFISDYSIA[Nle]DKIRQEDFVK([γGlu-γGlu-γGlu-X1])WLLAQKG-OH; N-terminus and C-terminus assumed), the “ThT Assay Lag time” value in series [1] was more than 45 h. The “HMWP formation (%/month)” value in series [2] worked out at 1.50 %/month. In series [3], the “Purity loss (%/month)” value was 4.80 %/month. In series [4], the “DLS-SI Dimensionless” value came to 1.7 and the DLS-SI precipitates entry is on record as “No”.
